Converted amounts (≈) assume the structure as drawn. The source made the active and inactive calls. No cut-off for these calls is given here.
Tests used:
Liver microsome = experiment: Intrinsic clearance in human liver microsomes measured pre ug of protein; assay type: ADME
[1] = Half life in C57BL/6 mouse at 3 umol/kg, iv; assay type: ADME, organism-based; conditions: in vivo
[2] = Permeability across apical to basolateral side in human Caco2 cells; assay type: ADME, cell-based; conditions: Caco-2, read-out: permeability
[3] = Oral bioavailability in C57BL/6 mouse at 10 umol/kg; assay type: ADME, organism-based; conditions: in vivo
Mus musculus [4] = experiment: Reduction in amyloid beta42 production in C57BL/6 mouse brain at 150 umol/kg, po after 1.5 hrs by ELISA relative to vehicle treated control; assay type: functional; conditions: C57BL/6, Brain
Gamma-secretase = experiment: Inhibition of human gamma-secretase in HEK-APPswe cells assessed as amyloid beta42 production by electrochemiluminescence assay; assay type: cell-based
[5] = Tmax in C57BL/6 mouse at 10 umol/kg, po; assay type: ADME, organism-based; conditions: in vivo
[6] = Ratio of drug level in brain to plasma in C57BL/6 mouse; assay type: ADME, organism-based; conditions: brain and plasma, read-out: BPR
[7] = Half life in C57BL/6 mouse at 10 umol/kg, po; assay type: ADME, organism-based; conditions: in vivo
[8] = Clearance in C57BL/6 mouse at 3 umol/kg, iv; assay type: ADME, organism-based; conditions: in vivo
Mus musculus [9] = experiment: Dose normalized AUC in C57BL/6 mouse at 10 umol/kg, po; assay type: ADME, organism-based; conditions: in vivo
[10] = Inhibition of gamma-secretase in mouse primary cortical neurons cells assessed as amyloid beta42 production after 5 days by ELISA; assay type: cell-based, Cerebral cortex neuron; conditions: for pIC50: cerebral cortex neuron
[11] = biological target: Voltage-gated inwardly rectifying potassium channel KCNH2 (Homo sapiens, UniProt Q12809); experiment: Inhibition of human ERG
Sequence of Voltage-gated inwardly rectifying potassium channel KCNH2 (Q12809 whole entry): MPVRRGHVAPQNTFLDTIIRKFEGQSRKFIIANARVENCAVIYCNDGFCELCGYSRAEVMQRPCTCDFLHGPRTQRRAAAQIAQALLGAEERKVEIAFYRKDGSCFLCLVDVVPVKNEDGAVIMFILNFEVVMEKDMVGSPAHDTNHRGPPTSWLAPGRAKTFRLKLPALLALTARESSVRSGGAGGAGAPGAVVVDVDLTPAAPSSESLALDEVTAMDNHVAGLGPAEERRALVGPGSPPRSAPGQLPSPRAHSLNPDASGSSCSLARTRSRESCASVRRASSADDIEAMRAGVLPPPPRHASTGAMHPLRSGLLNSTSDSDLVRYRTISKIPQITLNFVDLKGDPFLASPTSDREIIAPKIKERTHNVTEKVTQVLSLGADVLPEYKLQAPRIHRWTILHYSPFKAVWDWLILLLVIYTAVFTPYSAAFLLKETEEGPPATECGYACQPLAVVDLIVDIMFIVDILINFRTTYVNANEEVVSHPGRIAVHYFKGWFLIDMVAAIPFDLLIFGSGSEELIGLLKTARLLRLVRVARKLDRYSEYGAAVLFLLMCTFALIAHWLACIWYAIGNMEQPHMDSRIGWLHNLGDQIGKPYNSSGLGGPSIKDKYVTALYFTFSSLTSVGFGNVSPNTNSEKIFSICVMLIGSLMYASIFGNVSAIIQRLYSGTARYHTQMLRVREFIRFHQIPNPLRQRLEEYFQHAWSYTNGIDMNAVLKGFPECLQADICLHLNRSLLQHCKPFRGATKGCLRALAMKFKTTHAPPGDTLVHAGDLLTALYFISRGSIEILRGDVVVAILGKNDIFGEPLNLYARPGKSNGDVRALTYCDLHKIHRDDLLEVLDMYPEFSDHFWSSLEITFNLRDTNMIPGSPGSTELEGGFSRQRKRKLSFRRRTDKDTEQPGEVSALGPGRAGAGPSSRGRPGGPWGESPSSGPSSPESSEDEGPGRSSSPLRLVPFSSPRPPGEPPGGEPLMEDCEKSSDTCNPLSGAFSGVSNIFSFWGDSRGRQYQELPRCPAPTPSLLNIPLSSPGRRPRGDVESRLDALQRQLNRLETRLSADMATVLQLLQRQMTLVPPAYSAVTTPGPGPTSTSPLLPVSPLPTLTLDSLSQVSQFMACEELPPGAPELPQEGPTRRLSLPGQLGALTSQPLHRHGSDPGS

Mus musculus [12] = experiment: Reduction in amyloid beta42 production in C57BL/6 mouse brain at 50 umol/kg, po after 1.5 hrs by ELISA relative to vehicle treated control; assay type: functional; conditions: C57BL/6, Brain
[13] = Volume of distribution at steady state in C57BL/6 mouse at 3 umol/kg, iv; assay type: ADME, organism-based; conditions: in vivo, read-out: Vdss
[14] = Permeability across basolateral to apical side in human Caco2 cells; assay type: ADME, cell-based; conditions: Caco-2, read-out: permeability
[15] = Solubility of the compound; assay type: physicochemical
Mus musculus [16] = experiment: Dose normalized AUC in C57BL/6 mouse at 3 umol/kg, iv; assay type: ADME, organism-based; conditions: in vivo
[17] = Cmax in C57BL/6 mouse at 10 umol/kg, po; assay type: ADME, organism-based; parameters: dose 10 umol/kg, route oral; conditions: in vivo
[18] = biological target: T1, Gamma-secretase (Homo sapiens) (UniProt Q96BI3+Q9NZ42+Q8WW43+P49768+Q92542+P49810); experiment: Inhibition of human gamma-secretase in HEK-APPswe cells assessed as amyloid beta38 production at 10 nM by electrochemiluminescence assay; assay type: cell-based
[19] = biological target: T1, Gamma-secretase (Homo sapiens); experiment: Inhibition of human gamma-secretase in HEK-APPswe cells assessed as amyloid beta39 production at 10 nM by electrochemiluminescence assay; assay type: cell-based
[20] = biological target: T1, Gamma-secretase (Homo sapiens); experiment: Inhibition of human gamma-secretase in HEK-APPswe cells assessed as notch processing at 5 uM by electrochemiluminescence assay; assay type: cell-based
[21] = biological target: T1, Gamma-secretase (Homo sapiens); experiment: Inhibition of human gamma-secretase in HEK-APPswe cells assessed as amyloid beta37 production at 10 nM by electrochemiluminescence assay; assay type: cell-based
[22] = biological target: T1, Gamma-secretase (Homo sapiens); experiment: Inhibition of human gamma-secretase in HEK-APPswe cells assessed as amyloid beta40 production at 10 nM by electrochemiluminescence assay; assay type: cell-based
[23] = biological target: T1, Gamma-secretase (Homo sapiens); experiment: Inhibition of human gamma-secretase in HEK-APPswe cells assessed as amyloid beta42 production at 10 nM by electrochemiluminescence assay; assay type: cell-based
[24] = biological target: T1, Gamma-secretase (Homo sapiens); experiment: Inhibition of human gamma-secretase in HEK-APPswe cells assessed as notch processing at 8 uM by electrochemiluminescence assay; assay type: cell-based

CLH (Liver microsome) | half-life [1] | Papp A→B [2] | bioavailability [3] | pIC50 (Gamma-secretase) | Tmax [5] | Kp [6] | half-life [7] | clearance [8] | AUC/dose (Mus musculus [9]) | pIC50 [10] | Vd [13] | Papp B→A [14] | solubility [15] | AUC/dose (Mus musculus [16]) | Cmax [17] | inhibition [18] | inhibition [19] | inhibition [21] | Compound | IC50 [11] | also measured
– | – | – | – | – | – | – | – | – | – | – | – | – | – | – | – | inactive | inactive | inactive | COc1cc(Nc2nc3n(n2)C(C)CC(=O)N3Cc2ccccc2)ccc1-n1cnc(C)c1 (stereo in doubt; 19B) [listing 2 of 2 here] | – | inhibition [22]: inactive; Activity [24]: inactive; inhibition [23]: Active
37 µL/min | 54 min | – | 91% | – | 30 min | – | 60 min | 25 mL/min/kg | 0.61 kg·h/L | 7.5 | 1.4 L/kg | – | 63 µM (≈ 27.6 µg/mL) | 0.67 kg·h/L | 3800 nM | – | – | – | COc1cc(Nc2nc3n(n2)C(C2CC2)CCN3CC(C)(C)O)ccc1-n1cnc(C)c1 (stereo in doubt; 42A) [listing 2 of 2 here] | – | –

Further lines, the compound ahead of its results:

Compound | CLH (Liver microsome) | half-life [1] | Papp A→B [2] | bioavailability [3] | pIC50 (Gamma-secretase) | Tmax [5] | Kp [6] | half-life [7] | clearance [8] | AUC/dose (Mus musculus [9]) | pIC50 [10] | Vd [13] | Papp B→A [14] | solubility [15] | AUC/dose (Mus musculus [16]) | Cmax [17] | inhibition [18] | inhibition [19] | inhibition [21] | IC50 [11] | also measured
COc1cc(Nc2nc3n(n2)C(C)CC(=O)N3Cc2ccccc2)ccc1-n1cnc(C)c1 (stereo in doubt; 19B) [listing 1 of 2 here] | 52 µL/min | 36 min | 22 ×10⁻⁶ cm/s | 32% | 8 | 30 min | 0.72 | 312 min | 21 mL/min/kg | 0.27 kg·h/L | 7.7 | 0.9 L/kg | 13 ×10⁻⁶ cm/s | 6 µM (≈ 2.66 µg/mL) | 0.84 kg·h/L | 1200 nM | – | – | – | 3700 nM | inhibition in vivo at 150 µmol/kg (Mus musculus [4]): 24%; inhibition in vivo at 50 µmol/kg (Mus musculus [12]): 9%
COc1cc(Nc2nc3n(n2)C(C2CC2)CCN3CC(C)(C)O)ccc1-n1cnc(C)c1 (stereo in doubt; 42A) [listing 1 of 2 here] | – | – | – | – | – | – | – | – | – | – | – | – | – | – | – | – | Active | Active | Active | – | Activity [20]: inactive; inhibition [22]: Active; inhibition [23]: Active
COc1cc(Nc2nc3n(n2)CCC(=O)N3Cc2ccccc2C)ccc1-c1cnnc(C)c1 | 109 µL/min | – | 14 ×10⁻⁶ cm/s | – | 8 | – | 0.07 | – | – | – | – | – | 6 ×10⁻⁶ cm/s | – | – | – | – | – | – | 33000 nM | IC50 ([10]; Mus musculus, Cerebral cortex neuron, 120 h): 39.8 nM; solubility ([15]; read-out: solubility): < 1 µM
